Here are results for 14 molecules from patent publication US11331369B2, “Endoparasitic depsipeptides” (Zoetis Services LLC, priority 2017, dated 2022).

For experiment [1], the system named is third stage larvae of Haemonchus contortus. Description: Haemonchus contortus L3 (HcL3) Assay. Format: cell-based. The settings on record: 96 h, read-out: HcL3 Minimum Effective Dose (MED).
In experiment [2] the test system is microfilariae of Dirofilaria immitis. In words: Dirofilaria immitis, Microfilaria (DiMF) In vitro Assay. The settings on record: 72 h, read-out: DiMF Minimum Effective Dose (MED), approximately 72 hours incubation, microfilariae assessed for survival or paralysis. Format: cell-based.

Take `CC(C)C[C@H]1C(=O)O[C@H](Cc2ccc(Cn3cc(O)cn3)cc2)C(=O)N(C)[C@@H](CC(C)C)C(=O)O[C@H](C)C(=O)N(C)[C@@H](CC(C)C)C(=O)O[C@H](Cc2ccc(Cn3cc(O)cn3)cc2)C(=O)N(C)[C@@H](CC(C)C)C(=O)O[C@H](C)C(=O)N1C` [Example 1b-18, (3S,6R,9S,12R,15S,18R,21S,24R)-6,18-bis(4-((4-hydroxy-1H-pyrazol-1-yl)methyl)benzyl)-3,9,15,21-tetraisobutyl-4,10,12,16,22,24-hexamethyl-1,7,13,19-tetraoxa-4,10,16,22-tetraazacyclotetracosan-2,5,8,11,14,17,20,23-octaone]: the minimal effective concentration in experiment [1] is not above 1 µM.

In the case of `CC(C)C[C@H]1C(=O)O[C@H](Cc2ccc(Cn3cc(N4CCOCC4)cn3)cc2)C(=O)N(C)[C@@H](CC(C)C)C(=O)O[C@H](C)C(=O)N(C)[C@@H](CC(C)C)C(=O)O[C@H](Cc2ccc(Cn3cc(N4CCOCC4)cn3)cc2)C(=O)N(C)[C@@H](CC(C)C)C(=O)O[C@H](C)C(=O)N1C` [Example 1b-179, (3S,6R,9S,12R,15S,18R,21S,24R)-3,9,15,21-tetraisobutyl-4,6,10,16,18,22-hexamethyl-12,24-bis(4-((4-morpholino-1H-pyrazol-1-yl)methyl)benzyl)-1,7,13,19-tetraoxa-4,10,16,22-tetraazacyclotetracosan-2,5,8,11,14,17,20,23-octaone], the minimal effective concentration in experiment [1] lay in the range of 1 to 10 µM.

`CC(C)C[C@H]1C(=O)O[C@H](Cc2ccc(Cn3nccc3C(F)F)cc2)C(=O)N(C)[C@@H](CC(C)C)C(=O)O[C@H](C)C(=O)N(C)[C@@H](CC(C)C)C(=O)O[C@H](Cc2ccc(Cn3nccc3C(F)F)cc2)C(=O)N(C)[C@@H](CC(C)C)C(=O)O[C@H](C)C(=O)N1C` [Example 1b-211, (3S,6R,9S,12R,15S,18R,21S,24R)-6,18-bis(4-((5-(difluoromethyl)-1H-pyrazol-1-yl)methyl)benzyl)-3,9,15,21-tetraisobutyl-4,10,12,16,22,24-hexamethyl-1,7,13,19-tetraoxa-4,10,16,22-tetraazacyclotetracosan-2,5,8,11,14,17,20,23-octaone]: the minimal effective concentration in experiment [1] was not above 1 µM.

On to `CC(C)C[C@H]1C(=O)O[C@H](Cc2ccc(C(C)(C)n3cc([N+](=O)[O-])cn3)cc2)C(=O)N(C)[C@@H](CC(C)C)C(=O)O[C@H](C)C(=O)N(C)[C@@H](CC(C)C)C(=O)O[C@H](Cc2ccc(C(C)(C)n3cc([N+](=O)[O-])cn3)cc2)C(=O)N(C)[C@@H](CC(C)C)C(=O)O[C@H](C)C(=O)N1C` [Example 1c-7, (3S,6R,9S,12R,15S,18R,21S,24R)-3,9,15,21-tetraisobutyl-4,6,10,16,18,22-hexamethyl-12,24-bis(4-(2-(4-nitro-1H-pyrazol-1-yl)propan-2-yl)benzyl)-1,7,13,19-tetraoxa-4,10,16,22-tetraazacyclotetracosan-2,5,8,11,14,17,20,23-octaone], for which the minimal effective concentration in experiment [1] is not above 1 µM.

As for `Cc1cnn(C(C)(C)c2ccc(C[C@H]3OC(=O)[C@H](CC(C)C)N(C)C(=O)[C@@H](C)OC(=O)[C@H](CC(C)C)N(C)C(=O)[C@@H](Cc4ccc(C(C)(C)n5cc(C)cn5)cc4)OC(=O)[C@H](CC(C)C)N(C)C(=O)[C@@H](C)OC(=O)[C@H](CC(C)C)N(C)C3=O)cc2)c1` [Example 1c-9, (3S,6R,9S,12R,15S,18R,21S,24R)-3,9,15,21-tetraisobutyl-4,6,10,16,18,22-hexamethyl-12,24-bis(4-(2-(4-methyl-1H-pyrazol-1-yl)propan-2-yl)benzyl)-1,7,13,19-tetraoxa-4,10,16,22-tetraazacyclotetracosan-2,5,8,11,14,17,20,23-octaone], the minimal effective concentration in experiment [1] was not above 1 µM.

As for `CC(C)C[C@H]1C(=O)O[C@H](Cc2ccc(C(C)(C)n3cc(Br)cn3)cc2)C(=O)N(C)[C@@H](CC(C)C)C(=O)O[C@H](C)C(=O)N(C)[C@@H](CC(C)C)C(=O)O[C@H](Cc2ccc(C(C)(C)n3cc(Br)cn3)cc2)C(=O)N(C)[C@@H](CC(C)C)C(=O)O[C@H](C)C(=O)N1C` [Example 1c-11, (3S,6R,9S,12R,15S,18R,21S,24R)-6,18-bis(4-(2-(4-bromo-1H-pyrazol-1-yl)propan-2-yl)benzyl)-3,9,15,21-tetraisobutyl-4,10,12,16,22,24-hexamethyl-1,7,13,19-tetraoxa-4,10,16,22-tetraazacyclotetracosan-2,5,8,11,14,17,20,23-octaone], the minimal effective concentration in experiment [1] was not above 1 µM.

Consider `CC(C)C[C@H]1C(=O)O[C@H](Cc2ccc(Cn3ncc4ccccc43)cc2)C(=O)N(C)[C@@H](CC(C)C)C(=O)O[C@H](C)C(=O)N(C)[C@@H](CC(C)C)C(=O)O[C@H](Cc2ccccc2)C(=O)N(C)[C@@H](CC(C)C)C(=O)O[C@H](C)C(=O)N1C` [Example 10-26, (3S,6R,9S,12R,15S,18R,21S,24R)-6-(4-((1H-indazol-1-yl)methyl)benzyl)-18-benzyl-3,9,15,21-tetraisobutyl-4,10,12,16,22,24-hexamethyl-1,7,13,19-tetraoxa-4,10,16,22-tetraazacyclotetracosan-2,5,8,11,14,17,20,23-octaone], for which the minimal effective concentration in experiment [2] fell in the range of 0.01 to 0.1 µM.

For the molecule `CC(C)C[C@H]1C(=O)O[C@H](Cc2ccc(Cn3cc4c(n3)CNC4)cc2)C(=O)N(C)[C@@H](CC(C)C)C(=O)O[C@H](C)C(=O)N(C)[C@@H](CC(C)C)C(=O)O[C@H](Cc2ccccc2)C(=O)N(C)[C@@H](CC(C)C)C(=O)O[C@H](C)C(=O)N1C` [Example 10-27, (3S,6R,9S,12R,15S,18R,21S,24R)-6-benzyl-18-(4-((5,6-dihydropyrrolo[3,4-c]pyrazol-2(4H)-yl)methyl)benzyl)-3,9,15,21-tetraisobutyl-4,10,12,16,22,24-hexamethyl-1,7,13,19-tetraoxa-4,10,16,22-tetraazacyclotetracosan-2,5,8,11,14,17,20,23-octaone], in experiment [2], the minimal effective concentration was in the range of 0.01 to 0.1 µM.

Turning to `CC(C)C[C@H]1C(=O)O[C@H](Cc2ccc(Cn3cc4c(n3)CCOC4)cc2)C(=O)N(C)[C@@H](CC(C)C)C(=O)O[C@H](C)C(=O)N(C)[C@@H](CC(C)C)C(=O)O[C@H](Cc2ccccc2)C(=O)N(C)[C@@H](CC(C)C)C(=O)O[C@H](C)C(=O)N1C` [Example 10-28, (3S,6R,9S,12R,15S,18R,21S,24R)-6-benzyl-18-(4-((6,7-dihydropyrano[4,3-c]pyrazol-2(4H)-yl)methyl)benzyl)-3,9,15,21-tetraisobutyl-4,10,12,16,22,24-hexamethyl-1,7,13,19-tetraoxa-4,10,16,22-tetraazacyclotetracosan-2,5,8,11,14,17,20,23-octaone], the minimal effective concentration in experiment [2] lay within 0.01 to 0.1 µM.

For `CC(C)C[C@H]1C(=O)O[C@H](Cc2ccc(Cn3cc4c(n3)CN(C)C4)cc2)C(=O)N(C)[C@@H](CC(C)C)C(=O)O[C@H](C)C(=O)N(C)[C@@H](CC(C)C)C(=O)O[C@H](Cc2ccccc2)C(=O)N(C)[C@@H](CC(C)C)C(=O)O[C@H](C)C(=O)N1C` [Example 10-32, (3S,6R,9S,12R,15S,18R,21S,24R)-6-benzyl-3,9,15,21-tetraisobutyl-4,10,12,16,22,24-hexamethyl-18-(4-((5-methyl-5,6-dihydropyrrolo[3,4-c]pyrazol-2(4H)-yl)methyl)benzyl)-1,7,13,19-tetraoxa-4,10,16,22-tetraazacyclotetracosan-2,5,8,11,14,17,20,23-octaone], the minimal effective concentration in experiment [2] is 0.01 to 0.1 µM.

For `CC(C)C[C@H]1C(=O)O[C@H](Cc2ccc(CN3CCS(=O)(=O)c4ccccc43)cc2)C(=O)N(C)[C@@H](CC(C)C)C(=O)O[C@H](C)C(=O)N(C)[C@@H](CC(C)C)C(=O)O[C@H](Cc2ccc(CN3CCS(=O)(=O)c4ccccc43)cc2)C(=O)N(C)[C@@H](CC(C)C)C(=O)O[C@H](C)C(=O)N1C` [Example 10-33, (3S,6R,9S,12R,15S,18R,21S,24R)-6,18-bis(4-((1,1-dioxido-2,3-dihydro-4H-benzo[b][1,4]thiazin-4-yl)methyl)benzyl)-3,9,15,21-tetraisobutyl-4,10,12,16,22,24-hexamethyl-1,7,13,19-tetraoxa-4, 10,16,22-tetraazacyclotetracosan-2,5,8,11,14,17,20,23-octaone], the minimal effective concentration in experiment [2] fell in the range of 0.01 to 0.1 µM.

For the molecule `CC(C)C[C@H]1C(=O)O[C@H](Cc2ccc(CN3CCSc4ncccc43)cc2)C(=O)N(C)[C@@H](CC(C)C)C(=O)O[C@H](C)C(=O)N(C)[C@@H](CC(C)C)C(=O)O[C@H](Cc2ccccc2)C(=O)N(C)[C@@H](CC(C)C)C(=O)O[C@H](C)C(=O)N1C` [Example 10-35, (3S,6R,9S,12R,15S,18R,21S,24R)-6-benzyl-18-[[4-(2,3-dihydropyrido[2,3-b][1,4]thiazin-1-ylmethyl)phenyl]methyl]-3,9,15,21-tetraisobutyl-4,10,12,16,22,24-hexamethyl-1,7,13,19-tetraoxa-4, 10,16,22-tetrazacyclotetracosane-2,5,8,11,14,17,20,23-octaone], the minimal effective concentration in experiment [2] fell in the range of 0.01 to 0.1 µM.

`CC(C)C[C@H]1C(=O)O[C@H](Cc2ccc(CN3CCOc4cccnc43)cc2)C(=O)N(C)[C@@H](CC(C)C)C(=O)O[C@H](C)C(=O)N(C)[C@@H](CC(C)C)C(=O)O[C@H](Cc2ccccc2)C(=O)N(C)[C@@H](CC(C)C)C(=O)O[C@H](C)C(=O)N1C` [Example 10-37, (3S,6R,9S,12R,15S,18R,21S,24R)-6-benzyl-18-[[4-(2,3-dihydropyrido[3,2-b][1,4]oxazin-4-ylmethyl)phenyl]methyl]-3,9,15,21-tetraisobutyl-4,10,12,16,22,24-hexamethyl-1,7,13,19-tetraoxa-4, 10,16,22-tetrazacyclotetracosane-2,5,8,11,14,17,20,23-octaone]: the minimal effective concentration in experiment [2] was in the range of 0.001 to 0.01 µM.

For the molecule `CC(C)C[C@H]1C(=O)O[C@H](Cc2ccc(CN3CCSc4ccccc43)cc2)C(=O)N(C)[C@@H](CC(C)C)C(=O)O[C@H](C)C(=O)N(C)[C@@H](CC(C)C)C(=O)O[C@H](Cc2ccccc2)C(=O)N(C)[C@@H](CC(C)C)C(=O)O[C@H](C)C(=O)N1C` [Example 10-41, (3S,6R,9S,12R,15S,18R,21S,24R)-6-benzyl-18-(4-((2,3-dihydro-4H-benzo[b][1,4]thiazin-4-yl)methyl)benzyl)-3,9,15,21-tetraisobutyl-4,10,12,16,22,24-hexamethyl-1,7,13,19-tetraoxa-4,10,16,22-tetraazacyclotetracosan-2,5,8,11,14,17,20,23-octaone], in experiment [2], the minimal effective concentration was in the range of 0.01 to 0.1 µM.
